Data reported in patent US20240000977A1, “METHODS AND KITS FOR DIAGNOSING AND TREATING CANCERS” (Baruch S. Blumberg Institute, priority 2020, published 2024).

Legend:
[1] = system: H3K36me3-deficient tumor xenografts; conditions: cited from earlier work
[2] = system: DACH1^+/+ 3T3 cells; experiment: BrdU / propidium iodide flow cytometry of S-phase cells after WEE1 inhibition; format: cell-based; conditions: Wt (DACH1^+/+) 3T3 cells, Adavosertib 10 μM, 24 h, 20 μM BrdU pulse 30 min; mean of 4 experiments
Procedure: (§1) DACH1 deficiency was determined to promote accumulation of non-proliferative S-phase cells by WEE1 kinase inhibitors. DACH1^+/+ and DACH1^−/− 3T3 cells were treated for 24 h with Adavosertib at 10 μM, a small molecule inhibitor of the tyrosine kinase WEE1, or with DMSO, as the control (see FIGS. 18A and 18B). Prior to harvest, the 3T3 cells were pulsed with 20 μM BrdU for 30 min at a temperature of 37° C. to enable detection of cells with active DNA replication. After harvesting the 3T3 cells, the 3T3 cells were stained with propidium iodide (DNA content) and an anti-BrdU antibody (Abcam). […] Representative FACS plots are shown (see FIGS. 19A-19E). […] Data is shown as mean±SEM for 4 separate experiments.

[3] = system: DACH1^−/− 3T3 cells; experiment: as above; format: cell-based; conditions: 24 h
Procedure: as §1

[4] = system: SETD2−/− cells; conditions: cited from earlier work
[5] = system: L1210 leukemia; conditions: murine L1210 leukemia, single agent; cited from earlier work

Compound | effect on tumor xenografts [1] | non-proliferating S-phase population [2] [%] | BrdU incorporation upon inhibition of WEE1 kinase ([3]; 10 μM) | non-proliferating S-phase population ([3]; Adavosertib 10 μM, 20 μM BrdU pulse 30 min, mean of 4 experiments) [%] | sensitivity of cells [4] | antileukemic effects, agent given alone [5]
C=CCn1c(=O)c2cnc(Nc3ccc(N4CCN(C)CC4)cc3)nc2n1-c1cccc(C(C)(C)O)n1 [Adavosertib] | regresses | 13.8 | failed to incorporate the BrdU | 38.3 | hypersensitive | –
IL-12: IL-12 proteins, cytokine used in chemo-immunotherapy | – | – | – | – | – | moderate antileukemic effects
